Source: ChEMBL document CHEMBL1201862, “PubChem BioAssay data set” (2004)
Each block holds one compound with its values, some of them ahead of it. The source made the active and inactive calls. Rule as the data show it, for most assays here: actives have a measured EC50 and inactives only a lower limit.

How the values were obtained:
[1] = molecular target: T1, Heat shock factor protein 1 (Mus musculus, UniProt P38532); assay: decrease of HSF1-responsive luciferase luminescence – cell-based, NIH3T3, dose retest, confirmation (AID 2382); assay type: functional;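 also: NIH3T3 fibroblasts with HSF1-driven luciferase reporter stressed by proteasome inhibitor MG132; luminescence from HSF1-driven luciferase expression after 8 hours of MG132 stress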
T1 sequence (P38532 whole entry): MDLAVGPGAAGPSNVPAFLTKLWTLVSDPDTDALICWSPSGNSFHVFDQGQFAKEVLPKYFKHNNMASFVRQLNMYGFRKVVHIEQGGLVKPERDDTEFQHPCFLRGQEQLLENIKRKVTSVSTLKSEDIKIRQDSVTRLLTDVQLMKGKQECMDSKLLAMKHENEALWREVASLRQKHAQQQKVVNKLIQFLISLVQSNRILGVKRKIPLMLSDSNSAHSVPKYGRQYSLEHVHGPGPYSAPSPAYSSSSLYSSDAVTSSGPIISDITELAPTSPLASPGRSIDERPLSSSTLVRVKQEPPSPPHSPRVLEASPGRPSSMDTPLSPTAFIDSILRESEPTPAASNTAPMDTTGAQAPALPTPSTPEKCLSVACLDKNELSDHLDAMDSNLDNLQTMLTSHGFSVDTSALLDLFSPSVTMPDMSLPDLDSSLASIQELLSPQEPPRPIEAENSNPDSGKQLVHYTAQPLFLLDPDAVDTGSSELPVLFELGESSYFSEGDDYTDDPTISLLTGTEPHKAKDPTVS

[2] = molecular target: T2, RNA-binding protein pos-1 (Caenorhabditis elegans, UniProt G5EF15); assay: disruptors of C. elegans POS-1 RNA interaction – biochemical, fluorescence polarization, dose response (AID 1964);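 also: purified POS-1 fused to maltose binding protein made in E. coli; potency of compounds blocking POS-1 binding to fluorescent RNA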
T2 sequence (G5EF15 whole entry): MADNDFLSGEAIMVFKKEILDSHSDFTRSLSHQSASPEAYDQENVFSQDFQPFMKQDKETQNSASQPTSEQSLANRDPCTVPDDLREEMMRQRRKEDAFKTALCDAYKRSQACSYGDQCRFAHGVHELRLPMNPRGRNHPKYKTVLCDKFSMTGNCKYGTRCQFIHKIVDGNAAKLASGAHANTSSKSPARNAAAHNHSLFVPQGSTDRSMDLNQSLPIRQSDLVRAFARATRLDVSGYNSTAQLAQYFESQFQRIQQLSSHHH

[3] = molecular target: T3, Zinc finger protein mex-5 (Caenorhabditis elegans, UniProt Q9XUB2); assay: potency of MEX-5 RNA-binding blockers – biochemical, C. elegans, fluorescence polarization, dose response (AID 1960)
T3 sequence (Q9XUB2 whole entry): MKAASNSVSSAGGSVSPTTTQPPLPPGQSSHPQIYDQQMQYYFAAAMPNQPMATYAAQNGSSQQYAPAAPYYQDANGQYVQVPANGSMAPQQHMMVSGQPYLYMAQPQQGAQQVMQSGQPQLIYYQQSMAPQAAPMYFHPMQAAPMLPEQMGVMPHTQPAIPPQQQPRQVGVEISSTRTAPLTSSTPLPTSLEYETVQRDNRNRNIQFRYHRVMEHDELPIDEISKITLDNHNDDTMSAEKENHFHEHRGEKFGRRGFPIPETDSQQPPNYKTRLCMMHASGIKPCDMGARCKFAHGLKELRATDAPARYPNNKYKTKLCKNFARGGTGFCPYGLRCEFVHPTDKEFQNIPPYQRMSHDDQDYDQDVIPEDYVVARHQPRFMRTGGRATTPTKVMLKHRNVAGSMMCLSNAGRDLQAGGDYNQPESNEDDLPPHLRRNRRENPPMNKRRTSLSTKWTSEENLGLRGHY

[4] = molecular target: T4, Rac GTPase-activating protein 1 (Homo sapiens, UniProt Q9H0H5); assay: blockers of MgcRacGAP-driven Rac1 GTP hydrolysis – biochemical, ADP Hunter fluorescence, primary and confirmatory, confirmation (AID 624330); assay type: functional
T4 sequence (Q9H0H5 whole entry): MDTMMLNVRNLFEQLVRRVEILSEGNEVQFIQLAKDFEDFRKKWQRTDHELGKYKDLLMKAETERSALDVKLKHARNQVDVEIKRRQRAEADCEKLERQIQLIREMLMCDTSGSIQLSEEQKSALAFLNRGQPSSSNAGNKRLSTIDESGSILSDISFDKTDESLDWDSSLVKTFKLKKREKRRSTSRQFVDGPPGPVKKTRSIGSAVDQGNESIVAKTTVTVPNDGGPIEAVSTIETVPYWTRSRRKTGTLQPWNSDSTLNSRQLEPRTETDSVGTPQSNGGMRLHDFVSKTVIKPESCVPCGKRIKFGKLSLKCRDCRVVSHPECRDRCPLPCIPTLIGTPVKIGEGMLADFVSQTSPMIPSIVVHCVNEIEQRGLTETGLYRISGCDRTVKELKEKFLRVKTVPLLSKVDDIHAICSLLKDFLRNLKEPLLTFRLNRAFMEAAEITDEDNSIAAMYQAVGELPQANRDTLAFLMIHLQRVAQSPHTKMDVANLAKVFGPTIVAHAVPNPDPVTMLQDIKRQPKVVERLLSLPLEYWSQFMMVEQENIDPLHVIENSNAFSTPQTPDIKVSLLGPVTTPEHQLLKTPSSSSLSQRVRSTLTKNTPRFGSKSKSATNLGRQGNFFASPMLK

[5] = molecular target: T1, Heat shock factor protein 1; assay: enhancement of HSF1-driven luciferase signal – cell-based, NIH3T3, luminescence, dose retest, confirmation (AID 435004); assay type: functional;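 also: stress induced by proteasome inhibitor MG132 added 30 min after compound; luciferase reporter driven by HSF1 response element in NIH3T3 cells; actives raise luminescence as potentiators of the MG132 stress response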
[6] = molecular target: T5, Corticotropin-releasing factor receptor 2/Corticotropin-releasing factor-binding protein (Homo sapiens, UniProt P24387+Q13324); assay: Dose Response confirmation of uHTS hits for small molecule antagonists of the CRF-binding protein and CRF-R2 receptor complex.; assay type: functional; details: read-out: IC50_Mean
T5 sequence (Q13324 whole entry): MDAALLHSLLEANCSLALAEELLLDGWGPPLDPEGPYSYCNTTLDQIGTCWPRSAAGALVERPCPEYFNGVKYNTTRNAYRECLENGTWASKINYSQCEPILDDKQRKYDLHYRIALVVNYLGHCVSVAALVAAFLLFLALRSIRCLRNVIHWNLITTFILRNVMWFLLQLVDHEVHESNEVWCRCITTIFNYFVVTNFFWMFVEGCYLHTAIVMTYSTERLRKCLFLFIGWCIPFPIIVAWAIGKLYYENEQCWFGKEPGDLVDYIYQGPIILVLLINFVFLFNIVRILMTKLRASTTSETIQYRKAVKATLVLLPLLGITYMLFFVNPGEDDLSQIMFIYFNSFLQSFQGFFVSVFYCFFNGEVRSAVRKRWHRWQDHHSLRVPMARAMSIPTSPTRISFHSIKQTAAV
T5 sequence (P24387 whole entry): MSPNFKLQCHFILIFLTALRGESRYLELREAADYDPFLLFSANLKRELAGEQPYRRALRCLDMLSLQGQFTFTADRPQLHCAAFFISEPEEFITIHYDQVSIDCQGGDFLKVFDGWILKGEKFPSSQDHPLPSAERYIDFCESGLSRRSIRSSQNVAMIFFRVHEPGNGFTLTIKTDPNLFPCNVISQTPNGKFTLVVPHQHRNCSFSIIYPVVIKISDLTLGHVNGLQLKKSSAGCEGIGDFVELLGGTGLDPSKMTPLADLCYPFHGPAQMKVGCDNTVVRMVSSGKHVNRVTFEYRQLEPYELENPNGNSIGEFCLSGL

[7] = molecular target: T5, Corticotropin-releasing factor receptor 2/Corticotropin-releasing factor-binding protein; assay: activators of CRF receptor 2 with binding protein – uHTS hits, confirmation (AID 602473); assay type: functional; details: read-out: EC50_Mean

EC50 [1]: > 195 µM (not active)
SMILES: Cc1ccc2c(c1)N(CC(=O)O)C(=O)CO2

EC50 [1]: > 195 µM (not active)
SMILES: O=C(O)c1cc(S(=O)(=O)N(Cc2ccccc2)c2ccccc2Cl)ccc1Cl

EC50 [1]: > 195 µM (not active)
SMILES: Cc1cc(C)c(NC(=O)CSc2nnc(-c3ccncc3)n2Cc2ccco2)c(Cl)c1

EC50 [2]: > 300 µM (not active)
EC50 [3]: 127 µM (active)
SMILES: COc1cccc(C(=O)NNc2nc(C)cc(C)n2)c1

IC50 [4]: 21.4 µM (active)
SMILES: Oc1ccc(-c2csc(Nc3ncccn3)n2)cc1

EC50 [1]: > 195 µM (not active)
SMILES: CC(C)Cc1ccc(C#N)c(SCC(N)=O)n1

SMILES: CSc1ccc(C(=O)C2CCCN(Cc3cccnc3)C2)cc1 (centres undefined)
EC50 [5]: > 260 µM (inactive)

EC50 [5]: > 260 µM (inactive)
SMILES: Cc1cc(-c2nc3ncccc3o2)ccc1NC(=S)NC(=O)C(C)C

IC50 [4]: 78.9 µM (active)
SMILES: O=C(CN1CCN(c2ccccn2)CC1)Nc1ccc(F)cc1

EC50 [5]: > 260 µM (inactive)
SMILES: O=C1CC(N2CCC(c3nc4ccccc4[nH]3)CC2)C(=O)N1c1ccccc1F (centres undefined)

EC50 [1]: > 195 µM (not active)
SMILES: CC(C)C(=O)N1c2ccccc2N=C2CCCC(O)=C2C1c1ccc(N(C)C)cc1 (centres undefined)

EC50 [2]: > 300 µM (not active)
EC50 [3]: > 300 µM (not active)
SMILES: CCCC(C)NC(=O)c1ccc(C2SCC(=O)N2Cc2ccco2)cc1 (centres undefined)

IC50 [6]: > 47.1 µM (inactive)
EC50 [7]: > 53 µM (inactive)
SMILES: COc1ccc(NC(=O)C(=O)NCC(=O)Nc2cccc(C(F)(F)F)c2)cc1

IC50 [4]: 49 µM (active)
SMILES: COc1cc(/C=C/C(=O)OCC(=O)NCCC2=CCCCC2)ccc1O

IC50 [6]: > 47.1 µM (inactive)
EC50 [7]: > 53 µM (inactive)
SMILES: O=C(c1cccc([N+](=O)[O-])c1)c1ccc2c(c1)OCCOCCOCCO2

EC50 [5]: > 260 µM (inactive)
SMILES: O=C(CNC(=O)C1CCCCC1)OCC(=O)c1ccc(Br)cc1

EC50 [5]: > 260 µM (inactive)
SMILES: CCOC(=O)C1C(=O)OC(C)(C)C1C(C)C(=O)c1ccc(C)cc1C (centres undefined)

SMILES: CCN(CC)P(=O)(NC(=O)c1cccn1C)N(CC)CC
EC50 [1]: > 195 µM (not active)

EC50 [5]: > 260 µM (inactive)
SMILES: CC(NC(=O)c1ccc(C(C)(C)C)cc1)C(c1cccs1)N1CCOCC1 (centres undefined)

EC50 [1]: > 195 µM (not active)
SMILES: OCCC1CN(Cc2cccc(-n3cccn3)c2)CCN1Cc1ccccc1 (centres undefined)

EC50 [1]: > 195 µM (not active)
SMILES: CC(C)CNC(=O)c1noc2c1CCCC2

IC50 [6]: > 47.1 µM (inactive)
EC50 [7]: > 53 µM (inactive)
SMILES: Nc1nc(CN2CCc3ccccc3C2)nc(Nc2ccccc2)n1

IC50 [4]: 64.9 µM (active)
SMILES: C#CCOc1ccccc1CNC1CCN(Cc2ccccc2)CC1

EC50 [1]: > 100 µM (not active)
SMILES: COC(=O)c1cccc(N2C(=O)C3CC=CCC3C2=O)c1 (centres undefined)

IC50 [6]: > 47.1 µM (inactive)
EC50 [7]: > 53 µM (inactive)
SMILES: CCN(C(=O)COC(=O)Cc1cccc2ccccc12)C1CCS(=O)(=O)C1 (centres undefined)

EC50 [1]: > 195 µM (not active)
SMILES: Cc1nc(Nc2ccccc2)sc1C

EC50 [1]: > 195 µM (not active)
SMILES: COC(=O)C1=C(C)N(Cc2ccco2)C(=O)C1

EC50 [2]: > 300 µM (not active)
EC50 [3]: > 300 µM (not active)
SMILES: CC1=CC(C)(C)N2C(=O)C3(C(C#N)=C(N)OC4=C3C(=O)CCC4)c3c(C)c(C)cc1c32 (centres undefined)

EC50 [1]: > 195 µM (not active)
SMILES: COc1ccccc1C(=O)OCC(=O)c1cccc([N+](=O)[O-])c1

IC50 [4]: 158 µM (active)
SMILES: COc1ccc(N2CCN(c3ccc(C(N)=O)cc3[N+](=O)[O-])CC2)cc1

IC50 [6]: > 47.1 µM (inactive)
EC50 [7]: > 53 µM (inactive)
SMILES: COc1ccccc1-c1cc(C(=O)NN)[nH]n1

EC50 [5]: > 260 µM (inactive)
SMILES: O=C(Nc1cccc(Cl)c1)N(Cc1nc(O)c2ccccc2n1)C1CCCC1

IC50 [4]: 231 µM (active)
SMILES: CC1CC(C)CN(CC(=O)NC(c2ccccc2)c2ccccc2)C1 (centres undefined)

EC50 [1]: > 195 µM (not active)
SMILES: O=C(CCNC(=O)c1ccc(Cl)cc1)Nc1ncccc1O

EC50 [5]: > 260 µM (inactive)
SMILES: CCCC(C(=O)NCc1ccco1)N(C(=O)CNS(=O)(=O)c1ccc(Cl)cc1)C1CCCC1 (centres undefined)

IC50 [4]: 109 µM (active)
SMILES: CCOC(=O)c1[nH]c2ccc(OC)cc2c1NC(=O)c1ccccc1C(=O)O

EC50 [1]: > 195 µM (not active)
SMILES: CN1CCN(S(=O)(=O)c2cccc(C(=O)NCCC3=CCCCC3)c2)CC1

IC50 [6]: > 47.1 µM (inactive)
EC50 [7]: > 53 µM (inactive)
SMILES: COc1ccc(CNC(=O)CN2CCN(c3ccc(F)cc3)CC2)cc1

EC50 [2]: 7.64 µM (inconclusive)
EC50 [3]: 1.64 µM (inconclusive)
SMILES: Cc1ccc(/C(O)=C/c2nc3cc(C)ccc3oc2=O)cc1

IC50 [6]: 9.38 µM (active)
EC50 [7]: > 53 µM (inactive)
SMILES: N=C(Cc1ccc([N+](=O)[O-])cc1)NOC(=O)c1ccc(Br)cc1

IC50 [4]: 12.4 µM (active)
SMILES: CC(C)c1ccc(CNc2ccc(N3CCOCC3)cc2)cc1

IC50 [6]: > 47.1 µM (inactive)
EC50 [7]: > 53 µM (inactive)
SMILES: CCOc1ccccc1Nc1ccnc2cc(Cl)ccc12

IC50 [4]: 21.1 µM (active)
SMILES: CCn1c(S)nc2c(=O)n(C)c(=O)n(C)c21

EC50 [5]: > 260 µM (inactive)
SMILES: COc1ccc(-c2nc(C#N)c(N3CCCCC3)o2)cc1

IC50 [6]: > 47.1 µM (inactive)
EC50 [7]: > 53 µM (inactive)
SMILES: Cc1nn(-c2ccccc2)c(C)c1NC(=O)COC(=O)c1ccccc1OC(F)F

IC50 [6]: > 47.1 µM (inactive)
EC50 [7]: > 53 µM (inactive)
SMILES: COc1cc(C(=O)NCc2ccccc2Cl)ccc1OCC(=O)N1CCOCC1

IC50 [4]: 43.2 µM (active)
SMILES: Oc1ccc(/C=N/NC2=NCCCCC2)c(O)c1

EC50 [1]: > 195 µM (not active)
SMILES: CC1(C)CC(=O)C=C(Nc2ccc(Br)cc2F)C1

SMILES: Cc1ccccc1[N+](=O)[O-]
IC50 [6]: > 47.1 µM (inactive)
EC50 [7]: > 53 µM (inactive)
